According to US12357645B2, “Drug combination for treatment of gastric cancer” (priority 2023, dated 2025):

Experiments:
[1] = system: pancreatic tumor cell lines; test: Viability of pancreatic tumor cell lines in vitro (activated with alkaline phosphatase); assay type: cell-based; conditions: activated by concurrent incubation with alkaline phosphatase
[2] = system: advanced gastric cancer (AGC); test: Phase 1 study of minnelide prodrug alone or with paclitaxel in advanced gastric cancer (NCT 05566834): antitumor activity (RECIST v1.1; BOR, ORR, DCR, PFS, OS); assay type: in vivo, human
Experimental: Target Lesions. All measurable lesions up to a maximum of two lesions per organ and five lesions in total, representative of all involved organs, were identified as target lesions and recorded and measured at baseline. Target lesions were selected on the basis of their size (lesions with the longest diameter) and were representative of all involved organs, as well as their suitability for reproducible repeated measurements. All measurements were recorded using calipers if clinically assessed.
A sum of the diameters (longest for non-nodal lesions, short axis for nodal lesions) for all target lesions were calculated and reported as the baseline sum diameters, which were used as a reference to further characterize any objective tumor regression in the measurable dimension of the disease. If lymph nodes were included in the sum, only the short axis contributed.
Study design. This was an open-label, nonrandomized, phase 1 study conducted at Samsung Medical Center (SMC) in Korea. The study consisted of three regimens: Monotherapy with minnelide prodrug (Regimen A) and Combination therapy (minnelide prodrug plus paclitaxel), which was further divided into Regimen B and C.
Patients. Adult (≥20 years of age) Korean patients with histologically confirmed advanced-unresectable or metastatic gastric or gastro-esophageal junction adenocarcinoma, who had failed initial standard therapy or for whom no standard treatment was available, were eligible to participate in the study, regardless of HER2 status. Study treatment was discontinued if the patient experienced radiological progressive disease (PD) per Response Evaluation Criteria in Solid Tumors version 1.1 (RECIST v1.1) as assessed by the investigator, clinical progression as assessed by the investigator, or developed unacceptable toxicity.
Treatments. In Regimen A, 3-5 patients were treated at escalating doses of minnelide prodrug alone to determine the maximum tolerated dose (MTD). Minnelide prodrug was administered per oral (PO) once daily for 21 days followed by a 7-day rest period, starting at 1 mg, and escalating to 1.25 mg, and 1.5 mg. One cycle was equal to 28 days and minnelide prodrug was given with the patient in a fasting state. In Regimen B, the same dosing scheme was used for minnelide prodrug 0.25 mg PO in combination with paclitaxel intravenously on days 1, 8 and 15 (Q4W), starting at 60 mg/m^2, and escalating to 80 mg/m^2. In Regimen C, patients were treated with paclitaxel 80 mg/m^2 given intravenously on days 1, 8 and 15 (Q4W) in combination with minnelide prodrug PO once daily on days 1 to 5, 8 to 12 and 15 to 19, starting at 0.5 mg, escalating to 0.75 mg, 1.0 mg, and 1.25 mg. Dose-limiting toxicities (DLTs) were assessed during cycle 1. Treatment continued until disease progression, death, unacceptable toxicity, or patient or investigator decision to discontinue.
Outcomes. In this phase 1 study, the primary objective was to determine the maximum tolerated dose (MTD) and the dose limiting toxicities (DLT) of minnelide prodrug when given alone or in combination with paclitaxel and to establish recommended phase 2 dose (RP2D) of single-agent minnelide prodrug and in combination with paclitaxel every 4 weeks. Secondary objectives were to assess any evidence of antitumor activity of minnelide prodrug alone and in combination with paclitaxel by objective radiographic assessment. Antitumor activity was assessed by objective response rate (ORR). Disease control rate (DCR), duration of response (DOR), progression-free survival (PFS) and overall survival (OS) analysis were performed.
Assessment. Adverse events were graded using National Cancer Institute Common Terminology Criteria for Adverse Events (NCI CTCAE), version 4.03. Tumor assessments were performed after cycles 2, 4, 6, and 8, and every 4 cycles thereafter, or as indicated. Response was determined by investigators using RECIST criteria, version 1.1. […]

[3] = system: rats; test: Definitive toxicity studies in rats (intravenous); assay type: in vivo; conditions: definitive toxicity study
Experimental: (§1) As clinical development of minnelide prodrug was initiated using an intravenous drug product, IND-enabling toxicology studies were conducted in both rats and dogs using the intravenous route of administration. The results of these studies supported first-in-human clinical trials involving intravenous administration of minnelide prodrug to patients with advanced solid tumors. To support the clinical development of a new solid oral dosage form of minnelide prodrug (capsules), exploratory and definitive toxicity studies were conducted with minnelide prodrug in solution via oral gavage in dogs. Taken together, the results of the intravenous and oral toxicity studies conducted with minnelide prodrug indicate that the target organ profile of minnelide prodrug is consistent in both species (rats and dogs) when administered by either route of administration (intravenous or oral).

[4] = cited from earlier work
[5] = system: ovarian carcinoma cells; test: Proliferation of ovarian carcinoma cells in vitro (activated with alkaline phosphatase); assay type: cell-based; conditions: concentration-dependent, 50-200 nM
[6] = system: patients with Advanced Gastrointestinal Tumors; test: Phase 1 study of intravenous minnelide prodrug: safety; assay type: in vivo, human
Source text: Intravenous Minnelide Prodrug. Phase 1, Multi-Center, Open-Label, Dose-Escalation, Safety, Pharmacokinetic, and Pharmacodynamic Study of minnelide prodrug given intravenously daily for 21 days followed by 7 days off schedule in patients with Advanced Gastrointestinal Tumors. A second dosing schedule of minnelide prodrug given intravenously QD for 5 days with 2 days off for three weeks followed by a 7-day rest period was also explored during this study.

[7] = system: dogs; test: Definitive toxicity studies in dogs (intravenous, oral gavage); assay type: in vivo
Experimental: as §1

[8] = system: MKN45, MKN28I-N-87; test: Subcutaneous gastric cancer models, daily intraperitoneal minnelide prodrug; assay type: in vivo; conditions: 0.2 mg/kg and 0.4 mg/kg
[9] = Regimen A (PO daily x21 d/28 d), n = 11
[10] = Regimen A, nine patients who completed at least 1 cycle with measurable lesions
[11] = Regimen A, Kaplan-Meier estimate

## CC(C)[C@]12O[C@H]1[C@@H]1O[C@]13[C@]1(O[C@H]1C[C@H]1C4=C(CC[C@@]13C)C(=O)OC4)[C@@H]2OCOP(=O)([O-])[O-].[Na+].[Na+] [minnelide prodrug, disodium; [(1S,2S,4S,5S,7S,8R,9R,11S, 13S)-1-methyl-17-oxo-7-propan-2-yl-3,6,10,16-tetraoxaheptacyclo [11.7.0.0^2,4.0^2,9.0^5,7.0^9,11.0^14,18]icos-14 (18)-en-8-yl]oxymethyl phosphate]
[1]
  potency in decreasing viability: as potent as triptolide
[2]; Regimen A
  Duration of OS, Range: 1.6-11.1 months
  Duration of PFS, Range: 0.7-5.4 months
  PFS events, n (%): 9 n (%)
[2]; [9]
  BOR NE, number of patients: 2
  BOR PD, number of patients: 5
  BOR SD, number of patients: Four
  DCR, n (%): 4 (36.4) n (%)
  ORR, n (%): 0 n (%)
[2]; Regimen A (PO daily x21 d/28 d), n = 11, listed as Minnelide prodrug
  BOR SD, number of patients: 4
[2]; [10]
  BOR PD, share of patients: 55.6%
  BOR SD, share of patients: 44.4%
  DCR: 44.4%
[2]; [11]
  Duration of OS, Median: 5.3 months
  Duration of PFS, Median: 1.6 months
[2]; single agent, patient had failed four lines of therapy including immunotherapy
  duration of stable disease (one patient): 5.4 months
[3]
  histopathology of reproductive tract tissues, males and females: adverse, largely irreversible histopathological effects
[4]
  aqueous solubility: greater aqueous solubility
[5]
  proliferation: reduced the proliferation
[6]
  Anemia and thrombocytopenia Grade 3 and 4 (drug related), share of patients: 22%
  Serious Adverse Events related to the study drug: six
  Serious Adverse Events, number: 28
  TEAE cases considered DLTs: two
  other possibly related side effects of any grade (nausea, vomiting, diarrhea, constipation, anorexia, stomatitis, cerebellar toxicity, embolism, dyspnea), share of patients: ≤ 3%
  patients with Serious Adverse Events: 17
  patients with at least 1 AE considered related to the study drug: 32
  patients with neutropenic fever and neutropenic infection (drug related): three
[6]; 42 patients dosed, after study drug ended, within 30-day follow-up, not related to study drug
  deaths in the study: 6
[6]; all Grade 3
  patients who discontinued study drug due to TEAEs: 3
[6]; all dose levels
  resolution of grade 3 and 4 neutropenia after not receiving treatment: within a couple of days
[7]; definitive toxicity studies, dogs
  histopathology of reproductive tract tissues, males and females: adverse, largely irreversible histopathological effects
[7]; oral gavage for up to 28 consecutive days
  histopathology of the gastrointestinal tract: No adverse histopathological effects
[8]
  tumor weights and volumes: markedly decreased tumor weights and volumes
